For series [1], the target named is SOS1 (Homo sapiens (Human), UniProt Q07889). Nature of the series: Ras-SOS interaction assay (HTRF). The class given is biochemical.
Series [2] has as its system ERK phosphorylation (p-ERK 1/2 Thr202/Tyr204) in MIA PaCa-2 or NCI-H1975 cells. Kind of series: ERK phosphorylation assay (AlphaLISA p-ERK 1/2). The series is classed as cell-based. The settings on record: MIA PaCa-2 cells or EGFR mutant NCI-H1975 cells; read-out: IC50 for the inhibition of ERK phosphorylation. The protocol:
MIA PaCa-2 cells (ATCC CRL-1420) expressing K-Ras G12C is grown in DMEM/Ham's F12 medium supplemented with 10% fetal calf serum, glutamine and ˜2.5% horse serum. Alternatively, other cell lines with aberrant Ras signaling output can be utilized. Non-limiting exemplary cell lines include NCI-H358 and H1975. Cells are plated in 96-well plates at a concentration of 40,000 cells/well and allowed to attach for at least 8 hours. Following, diluted solutions of test inhibitor compounds are added to the cell culture. After ˜2 hours of incubation, the medium is removed and lysis buffer from AlphaLISA® SureFire® Ultra™ p-ERK 1/2 (Thr202/Tyr204) assay kit (Perkin Elmer ALSU-PERK-A10K) is added to the cells. The plate is agitated for 10 min at room temperature and 10 μL of the lysate is transferred to a 384-well Optiplate™ (Perkin Elmer) for assay. Thereafter ˜5 μL of Acceptor Mix from the p-ERK AlphaLISA assay kit is added to wells and plate is sealed with adhesive film. The samples are incubated for one hour at room temperature. Following, 5 μL of Donor Mix is added to the wells and plate is re-sealed with adhesive film, and incubated for one hour at room temperature. The plate is then read on a multimode microplate reader (e.g., SPARK©Tecan) equipped with Alpha detection module. The data can be fitted to four-parameter dose-response curve using Prism version 9 (GraphPad) to calculate an IC50 for the inhibition of ERK phosphorylation. […] 355, 332, 366, 216, 264, 356, 266, in an ERK phosphorylation assay utilizing either MIA PaCa-2 cells (ATCC CRL-1420) or EGFR mutant cell line (NCI-H1975 (ATCC CRL-5908)).
In general terms: In Alpha technology, singlet oxygen from a donor bead excites a nearby acceptor bead.

For series [3], the system named is MIA PaCa-2 cells (K-Ras G12C). Kind of series: Ras-SOS cellular growth inhibition assay (CellTiter-Glo, 3D). The class given is cell-based. To be noted: Homo sapiens. Summed up: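 Growth read by CellTiter-Glo luminescence about 5 days after dosing with 3-fold dilutions (9 points), added one day post-seeding. Cells: MIA PaCa-2, 3D culture on ultra-low-attachment surface, medium DMEM/Ham's F12 plus 10% FCS and 2.5% horse serum; IC50 by four-parameter fit.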
Background: Cellular ATP, detected with luciferase, serves as a proxy for viable cell number.

Series [4] concerns NCI-H1975 cells (EGFR T790M L858R). Nature of the series: EGFR-SOS cellular inhibition assay (CellTiter-Glo, 3D). The series is classed as cell-based. To be noted: Homo sapiens.
Series [5] can be described thus: In vitro plasma protein binding (PPB). To be noted: percentage of free/unbound compound. The series is classed as in vitro ADME.
The nature of series [6]: Metabolic (microsomal) stability assay. The class given is in vitro ADME. To be noted: mouse liver microsomes, T1/2; read-out: DMPK-invitro-metabolic Stability (Mouse T1/2). The source says:
Example 12: Metabolic (Microsomal) Stability Assay
(In general: Microsomes from liver hold many membrane-bound enzymes, among them those of drug oxidation.)

Where [7] appears, read: K-RasG13D utilized, read-out: IC50 inhibition of SOS.
Where [8] appears, read: K-RasG13D, read-out: IC50 value against SOS1.
Setting [9] is: MIA PaCa-2, 120 h, MIA PaCa-2, 3D proliferation, about 5 days, read-out: Bio-Cell-Prolif-3D (MiaPaca2 IC50).
[10] abbreviates: MIA PaCa-2, MIA PaCa-2, read-out: IC50 in inhibiting MIA PaCa-2 cell growth.
Setting [11] is: 120 h, NCI-H1975, 3D proliferation, about 5 days, read-out: Bio-Cell-Prolif-3D (H1975 IC50).
[12] abbreviates: NCI-H1975, EGFR T790M L858R, read-out: IC50 in inhibiting growth of NCI-H1975 cell line.

Like-named read-outs stand apart in the source and are kept apart here.

Sequence of SOS1 (Q07889 564-1049): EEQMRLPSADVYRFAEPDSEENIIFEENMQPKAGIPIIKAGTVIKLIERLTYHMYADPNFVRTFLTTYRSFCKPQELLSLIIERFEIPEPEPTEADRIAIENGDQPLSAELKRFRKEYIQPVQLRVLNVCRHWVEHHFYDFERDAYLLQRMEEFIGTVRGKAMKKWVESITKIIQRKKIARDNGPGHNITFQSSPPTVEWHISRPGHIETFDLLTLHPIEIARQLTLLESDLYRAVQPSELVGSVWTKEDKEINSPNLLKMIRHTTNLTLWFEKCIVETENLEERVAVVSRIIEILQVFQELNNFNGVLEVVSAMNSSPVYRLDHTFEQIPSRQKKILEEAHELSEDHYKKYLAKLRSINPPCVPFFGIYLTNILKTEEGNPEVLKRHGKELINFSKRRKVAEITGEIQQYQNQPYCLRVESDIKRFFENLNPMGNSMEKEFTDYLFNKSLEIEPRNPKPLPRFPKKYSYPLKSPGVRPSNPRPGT

The IC50 is the concentration that gives 50% inhibition. On to `COc1nc2ncnc(N[C@H](C)c3cccc(C(F)(F)C(C)(C)O)c3F)c2cc1C1(C#N)CC1` [Compound 356, (R)-1-(4-((1-(3-(1,1-difluoro-2-hydroxy-2-methylpropyl)-2-fluorophenyl)ethyl)amino)-7-methoxypyrido[2,3-d]pyrimidin-6-yl)cyclopropane-1-carbonitrile], for which the IC50 in series [1] (setting [7]) is less than 0.1 µM; in series [1] (setting [8]), less than 0.05 µM; in series [2], less than 1 µM; in series [3] (setting [9]), no more than 1 µM; in series [3] (setting [10]) it was less than 0.5 µM; in series [4] (setting [11]), no more than 1 µM. Also, the concentration for half-maximal inhibition (IC50) in series [4] (setting [12]) is less than 0.5 µM. Besides, in series [5], the “DMPK-invitro-PPB (Mouse Unbound) [%]” value is given as 0.48%. The half-life in series [6] is greater than 200 min.
Consider `COc1nc2nc(C)nc(N[C@H](C)c3cccc(C(F)(F)[C@@H](C)O)c3)c2cc1C1(C#N)CC1` [Compound 366, 1-(4-(((R)-1-(3-((R)-1,1-difluoro-2-hydroxypropyl)phenyl)ethyl)amino)-7-methoxy-2-methylpyrido[2,3-d]pyrimidin-6-yl)cyclopropane-1-carbonitrile], for which the half-maximal inhibitory concentration (IC50) in series [1] (setting [7]) is less than 0.1 µM; in series [1] (setting [8]), less than 0.05 µM; in series [2] it was less than 1 µM; in series [3] (setting [9]), no more than 1 µM; in series [3] (setting [10]), less than 0.5 µM; in series [4] (setting [11]), no more than 1 µM. In addition, the IC50 in series [4] (setting [12]) is less than 0.5 µM. Besides, the “DMPK-invitro-PPB (Mouse Unbound) [%]” value in series [5] is reported as 1.32%. Also, the half-life in series [6] was 25.7 min.

For the origin of these results see US11648254B2 (Kumquat Biosciences Inc., priority 2021, dated 2023).
